These results are taken from ChEMBL document CHEMBL1144187, “Pharmacophore modeling and virtual screening for designing potential PLK1 inhibitors” (Bioorg Med Chem Lett, 2008).

Chain of Serine/threonine-protein kinase PLK1 (P53350 whole entry): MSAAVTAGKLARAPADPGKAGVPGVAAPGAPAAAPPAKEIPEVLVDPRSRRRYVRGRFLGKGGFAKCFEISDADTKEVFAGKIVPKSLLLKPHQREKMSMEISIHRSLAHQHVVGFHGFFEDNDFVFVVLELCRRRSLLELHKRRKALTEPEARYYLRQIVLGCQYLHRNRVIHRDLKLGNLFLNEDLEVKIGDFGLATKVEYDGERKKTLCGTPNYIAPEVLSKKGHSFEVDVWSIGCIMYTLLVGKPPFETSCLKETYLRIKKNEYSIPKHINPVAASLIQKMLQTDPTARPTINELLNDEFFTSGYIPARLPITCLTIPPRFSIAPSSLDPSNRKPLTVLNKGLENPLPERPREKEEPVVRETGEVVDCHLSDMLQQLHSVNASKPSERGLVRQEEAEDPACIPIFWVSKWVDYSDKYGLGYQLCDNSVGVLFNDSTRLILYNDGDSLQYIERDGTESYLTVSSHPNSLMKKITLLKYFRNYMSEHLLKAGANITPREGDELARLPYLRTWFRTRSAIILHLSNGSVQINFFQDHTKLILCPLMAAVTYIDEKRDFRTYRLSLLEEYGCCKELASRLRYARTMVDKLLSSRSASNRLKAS

The experiment has as its target Serine/threonine-protein kinase PLK1 (Homo sapiens, UniProt P53350).
What is called IC50 is the concentration that gives 50% inhibition. `FC(F)(F)c1ccc(Nc2nc(NCc3cccnc3)ncc2-c2nn[nH]n2)cc1`: half-maximal inhibition (IC50) was put at 490 nM.

As for `CCCN(CC1CC1)c1nc(NCc2ccc3c(c2)OCO3)ncc1C#N`, the midpoint of inhibition, the IC50, lay at 1600 nM. `CCOC(=O)/C(C#N)=c1\s/c(=C/Nc2ccccc2F)c(=O)n1CC` had a 50% inhibitory concentration (IC50) of 160 nM. This IC50 is about 10-fold lower than that of the compound before. Under `CC(C)(C)c1ccc(Nc2nc(NCc3cccnc3)ncc2-c2nn[nH]n2)cc1` stands 960 nM; under `c1csc(CCNc2ncc(-c3nnn[nH]3)c(Nc3ccc4c(c3)OCCO4)n2)c1`, 1040 nM. `CCCN(CC1CC1)c1nc(NC(C)c2ccccc2)ncc1C#N` (configuration not stated) yielded an IC50 of 550 nM. This IC50 lies about 1.9-fold lower than the previous one.

The compound `C=CCOC(=O)/C(C#N)=C1\S[C@@H](CNc2ccc(NC(=O)NCCN3CCCC3)cc2)C(=O)N1CC` yielded a half-maximal inhibitory concentration (IC50) of 23 nM.

`CC(Nc1ncc(C#N)c(N2CCc3ccccc3C2)n1)c1ccccc1` (configuration not stated) showed an IC50 of 750 nM. Under `CC(=O)N(C)c1cccc(Nc2nc(NCCc3cccs3)ncc2-c2nn[nH]n2)c1` stands 330 nM; under `CC(Nc1ncc(C#N)c(OCC2CCCCO2)n1)c1ccccc1` (configuration not stated), 1600 nM. The compound `O=C1C(C2=C3C(=Nc4ccccc43)/C(=C\c3ccc(O)cc3)C2=O)=C2C(=Nc3ccccc32)/C1=C\c1ccc(O)cc1` showed a 50% inhibitory concentration (IC50) of 2000 nM. This IC50 and that of the compound before are within 1.5-fold of each other. `C#CNC(=O)/C(C#N)=c1\s/c(=C/Nc2ccc(OCCN(C)C)cc2)c(=O)n1CC` showed an IC50 of 71 nM. This IC50 lies about 28-fold lower than the previous one. `CCn1c(=O)/c(=C\Nc2ccc(OCCN(C)C)cc2)s/c1=C(/C#N)C(=O)NCC(F)F`: the IC50 was 74 nM. Turning to `CN1CCN(c2ccc(C(=O)Nc3[nH]nc4c3CN(C(=O)Cc3cccs3)C4)cc2)CC1`, the IC50 is 530 nM. Against the preceding compound, the IC50 is about 7.2-fold higher. Compound `N[C@H](COc1cncc(-c2cc3ccncc3s2)c1)Cc1c[nH]c2ccccc12` displayed an IC50 of 10000 nM. This IC50 is about 19-fold higher than that of the compound before. `CCOC(=O)/C(C#N)=c1\s/c(=C/Nc2ccc(NC(=O)COC)cc2)c(=O)n1CC` returned an IC50 of 500 nM.

The compound `O=c1c(O)c(-c2ccc(O)c(O)c2)oc2cc(O)cc(O)c12` [QUERCETIN] had a half-inhibitory concentration (IC50) of 64000 nM.
